The text below walks through data of US20260116920A1, “HUMAN TRANSFERRIN RECEPTOR BINDING PEPTIDE” (PEPTIDREAM INC., priority 2021, published 2026).

The experiment deals with T1, human transferrin receptor (hTfR) (Homo sapiens, UniProt P02786).
T1 construct: made in house
The experiment is described as follows: Evaluation of molecular interaction between transferrin receptor (hTfR) and peptide using surface plasmon resonance (SPR). The format is binding. The method in brief:
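Steps: NTA chip loaded with NiCl2, activated with EDC/NHS, coated with 0.5 μM hTfR dimer, capped with ethanolamine. Peptides diluted from DMSO stock into running buffer (pH 8.0, 1.0% DMSO) at 5–100 nM and injected in single-cycle mode. Sensorgrams fitted to give KD.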
(In general: Surface plasmon resonance follows binding to a sensor surface in real time, without labels.)

Setting [1] is: KD class for binding to hTfR by SPR, peptide with the linker shown in the same line, 'low signal indicates no activity', read-out: SPR.
The mark [2] stands for this setting: surface plasmon resonance, binding to hTfR, KD class symbol, read-out: SPR (KD value).

Read-outs that look alike come from different tables or passages of the source. Positions of bridges follow the written chain, without caps; N, C: chain ends. Non-standard residues stand in square brackets, D forms with d. Residues, ends and D or L forms follow the SMILES beside them. *: point of attachment. Trp(1-CH2COOH) = N[C@@H](Cc1cn(CC(=O)O)c2ccccc12)C(=O)O; BCN(endo) = O=C(OC[C@@H]1[C@@H]2CCC#CCC[C@@H]21)*; Phe(3-COOH) = N[C@@H](Cc1cccc(C(=O)O)c1)C(=O)O; NMePhe(3-Cl) = CN[C@@H](Cc1cccc(Cl)c1)C(=O)O; 3Pal(6-NH2) = Nc1ccc(C[C@H](N)C(=O)O)cn1; Lys(N3) = [N-]=[N+]=NCCCC[C@H](N)C(=O)O; NMeY = CN[C@@H](Cc1ccc(O)cc1)C(=O)O; 3Pal = N[C@@H](Cc1cccnc1)C(=O)O; 4Pal = N[C@@H](Cc1ccncc1)C(=O)O; PEG4 = NCCOCCOCCOCCOCCC(=O)O; Carboxymethyl = O=C(O)C* Where only a bound is given, the exact number is not on record here.

T1 sequence (P02786 89-760 limits assumed): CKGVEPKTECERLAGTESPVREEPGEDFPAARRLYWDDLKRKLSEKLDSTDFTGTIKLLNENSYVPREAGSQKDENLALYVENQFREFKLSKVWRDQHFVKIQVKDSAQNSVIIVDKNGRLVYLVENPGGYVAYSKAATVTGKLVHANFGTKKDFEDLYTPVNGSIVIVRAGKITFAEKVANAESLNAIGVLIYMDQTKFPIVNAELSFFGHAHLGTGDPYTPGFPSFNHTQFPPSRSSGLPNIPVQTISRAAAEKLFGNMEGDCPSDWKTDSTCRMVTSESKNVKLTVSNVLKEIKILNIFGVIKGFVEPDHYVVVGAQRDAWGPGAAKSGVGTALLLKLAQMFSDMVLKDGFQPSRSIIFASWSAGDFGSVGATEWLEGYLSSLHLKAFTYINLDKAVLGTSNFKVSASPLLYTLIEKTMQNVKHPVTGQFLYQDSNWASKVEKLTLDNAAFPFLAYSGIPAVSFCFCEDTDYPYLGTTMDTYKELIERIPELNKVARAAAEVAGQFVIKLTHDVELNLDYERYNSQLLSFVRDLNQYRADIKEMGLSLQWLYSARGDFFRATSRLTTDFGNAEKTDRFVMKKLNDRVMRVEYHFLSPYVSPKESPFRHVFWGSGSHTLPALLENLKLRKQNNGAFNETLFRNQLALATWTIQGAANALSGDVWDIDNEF

In the case of `CC[C@H](C)[C@@H]1NC(=O)[C@H](Cc2cccnc2)NC(=O)[C@H](Cc2ccc(N)nc2)NC(=O)[C@H](CC(N)=O)NC(=O)[C@H](Cc2c[nH]c3ccccc23)NC(=O)[C@H](C(C)C)NC(=O)[C@H](Cc2cccc(Cl)c2)N(C)C(=O)[C@H](C(C)C)NC(=O)[C@H](C)NC(=O)CSC[C@@H](C(=O)NCC(=O)N[C@@H](CCCCN=[N+]=[N-])C(N)=O)NC(=O)[C@H](Cc2ccc(O)cc2)N(C)C(=O)[C@H](Cc2ccncc2)NC(=O)[C@H](CCCNC(=N)N)NC(=O)[C@H](CCCNC(=N)N)NC(=O)[C@H]([C@@H](C)CC)NC1=O` [894_3189] ({CH2CO}-AV[NMePhe(3-Cl)]VWN[3Pal(6-NH2)][3Pal]IIRR[4Pal][NMeY]CG[Lys(N3)]-NH2; thioether N-15), the Kd under setting [1] fell in the range of 1 to 100 nM.

Take `CC[C@H](C)[C@@H]1NC(=O)[C@H](Cc2ccc(OC)cc2)NC(=O)[C@H](Cc2ccc(N)nc2)NC(=O)[C@H](CC(N)=O)NC(=O)[C@H](Cc2c[nH]c3ccccc23)NC(=O)[C@H](C(C)C)NC(=O)[C@H](Cc2cccc(Cl)c2)N(C)C(=O)[C@H](C(C)C)NC(=O)[C@H](C)NC(=O)CSC[C@@H](C(=O)NCC(=O)N[C@@H](CCCCN=[N+]=[N-])C(N)=O)NC(=O)[C@H](Cc2ccc(O)cc2)N(C)C(=O)[C@H](Cc2ccncc2)NC(=O)[C@H](CCCNC(=N)N)NC(=O)[C@H](CCCNC(=N)N)NC(=O)[C@H]([C@@H](C)CC)NC1=O` [894_3190]: under setting [1], the Kd was in the range of 1 to 100 nM.

As to `CC[C@H](C)[C@@H]1NC(=O)[C@H](Cc2ccc(OCC(=O)O)cc2)NC(=O)[C@H](Cc2ccc(O)cc2)NC(=O)[C@H](CC(N)=O)NC(=O)[C@H](Cc2cn(CC(=O)O)c3ccccc23)NC(=O)[C@H](C(C)C)NC(=O)[C@H](Cc2cccc(Cl)c2)N(C)C(=O)[C@H](C(C)C)NC(=O)[C@H](C)NC(=O)CSC[C@@H](C(=O)NCC(=O)N[C@H](CCC(=O)O)C(=O)N[C@H](CCC(=O)O)C(=O)N[C@H](CCC(=O)O)C(=O)N[C@H](CO)C(=O)N[C@H](CO)C(=O)N[C@@H](CCCCNC(=O)OC[C@@H]2[C@@H]3CCC#CCC[C@@H]32)C(N)=O)NC(=O)[C@H](Cc2ccc(O)cc2)N(C)C(=O)[C@H](Cc2ccccc2)NC(=O)[C@H](CCCNC(=N)N)NC(=O)[C@H](CCCNC(=N)N)NC(=O)[C@H]([C@@H](C)CC)NC1=O` [894_3197], the Kd under setting [1] is under 1 nM.

Turning to `CC[C@H](C)[C@@H]1NC(=O)[C@H](Cc2ccc(OCC(=O)O)cc2)NC(=O)[C@H](Cc2ccc(O)cc2)NC(=O)[C@H](CC(N)=O)NC(=O)[C@H](Cc2cn(CC(=O)O)c3ccccc23)NC(=O)[C@H](C(C)C)NC(=O)[C@H](Cc2cccc(Cl)c2)N(C)C(=O)[C@H](C(C)C)NC(=O)[C@H](C)NC(=O)CSC[C@@H](C(=O)NCC(=O)N[C@H](CO)C(=O)N[C@H](CO)C(=O)N[C@H](CO)C(=O)N[C@H](CO)C(=O)N[C@H](CO)C(=O)N[C@@H](CCCCNC(=O)OC[C@@H]2[C@@H]3CCC#CCC[C@@H]32)C(N)=O)NC(=O)[C@H](Cc2ccc(O)cc2)N(C)C(=O)[C@H](Cc2ccccc2)NC(=O)[C@H](CCCNC(=N)N)NC(=O)[C@H](CCCNC(=N)N)NC(=O)[C@H]([C@@H](C)CC)NC1=O` [894_3198] ({CH2CO}-AV[NMePhe(3-Cl)]V[Trp(1-CH2COOH)]NYY(Carboxymethyl)IIRRF[NMeY]CG[dS][dS][dS][dS][dS]K(BCN(endo))-NH2; thioether N-15), the Kd under setting [1] is under 1 nM.

As to `CC[C@H](C)[C@@H]1NC(=O)[C@H](Cc2ccc(OCC(=O)O)cc2)NC(=O)[C@H](Cc2ccc(O)cc2)NC(=O)[C@H](CC(N)=O)NC(=O)[C@H](Cc2cn(CC(=O)O)c3ccccc23)NC(=O)[C@H](C(C)C)NC(=O)[C@H](Cc2cccc(Cl)c2)N(C)C(=O)[C@H](C(C)C)NC(=O)[C@H](C)NC(=O)CSC[C@@H](C(=O)NCC(=O)N[C@@H](CCCCNC(=O)OC[C@@H]2[C@@H]3CCC#CCC[C@@H]32)C(N)=O)NC(=O)[C@H](Cc2ccc(O)cc2)N(C)C(=O)[C@H](Cc2ccccc2)NC(=O)[C@H](CCCNC(=N)N)NC(=O)[C@H](CCC(=O)NCCOCCOCCOCCOCCOCCOCCOCCOC)NC(=O)[C@H]([C@@H](C)CC)NC1=O` [894_3199], the Kd under setting [1] is under 1 nM.

Take `CC[C@H](C)[C@@H]1NC(=O)[C@H](Cc2ccc(O)cc2)NC(=O)[C@H](Cc2ccc(O)cc2)NC(=O)[C@H](CC(N)=O)NC(=O)[C@H](Cc2c[nH]c3ccccc23)N(C)C(=O)[C@H](C(C)C)NC(=O)[C@H](Cc2ccccc2)N(C)C(=O)[C@H](C(C)C)NC(=O)[C@H](C)NC(=O)CSC[C@@H](C(=O)NCC(=O)N[C@H](CO)C(=O)N[C@H](CO)C(=O)N[C@H](CO)C(=O)N[C@H](CO)C(=O)N[C@H](CO)C(=O)N[C@@H](CCCCN=[N+]=[N-])C(N)=O)NC(=O)[C@H](Cc2ccc(O)cc2)N(C)C(=O)[C@H](Cc2ccc(O)cc2)NC(=O)[C@H](CCCNC(=N)N)NC(=O)[C@H](CCCCN)NC(=O)[C@H]([C@@H](C)CC)NC1=O` [894_3200]: under setting [1], the Kd was under 1 nM.

As to `CC[C@H](C)[C@@H]1NC(=O)[C@H](Cc2cccnc2)NC(=O)[C@H](Cc2ccc(N)nc2)NC(=O)[C@H](CC(N)=O)NC(=O)[C@H](Cc2c[nH]c3ccccc23)NC(=O)[C@H](C(C)C)NC(=O)[C@H](Cc2cccc(Cl)c2)N(C)C(=O)[C@H](C(C)C)NC(=O)[C@H](C)NC(=O)CSC[C@@H](C(=O)NCCOCCOCCOCCOCCC(N)=O)NC(=O)[C@H](Cc2ccc(O)cc2)N(C)C(=O)[C@H](Cc2cccc(C(=O)O)c2)NC(=O)[C@H](CCCNC(=N)N)NC(=O)[C@H](CCCNC(=N)N)NC(=O)[C@H]([C@@H](C)CC)NC1=O` [SEQ ID No. 198] ({CH2CO}-AV[NMePhe(3-Cl)]VWN[3Pal(6-NH2)][3Pal]IIRR[Phe(3-COOH)][NMeY]C[PEG4]-NH2; thioether N-15), the Kd under setting [1] is 1 to 100 nM.

Turning to `CC[C@H](C)[C@@H]1NC(=O)[C@H](Cc2ccc(O)cc2)NC(=O)[C@H](Cc2ccc(O)cc2)NC(=O)[C@H](CC(N)=O)NC(=O)[C@H](Cc2c[nH]c3ccccc23)NC(=O)[C@H](C(C)C)NC(=O)[C@H](Cc2ccccc2)N(C)C(=O)[C@H](C(C)C)NC(=O)[C@H](C)NC(=O)CSC[C@@H](C(N)=O)NC(=O)[C@H](Cc2ccc(O)cc2)N(C)C(=O)[C@H](Cc2ccccc2)NC(=O)[C@H](CCCNC(=N)N)NC(=O)[C@H](CCCCNC(=O)CCOCCOCCOCCOC)NC(=O)[C@H]([C@@H](C)CC)NC1=O` [compound 1], the Kd under setting [2] fell in the range of 1 to 100 nM.

Regarding `CC[C@H](C)[C@@H]1NC(=O)[C@H](Cc2ccc(O)cc2)NC(=O)[C@H](Cc2ccc(O)cc2)NC(=O)[C@H](CC(N)=O)NC(=O)[C@H](Cc2c[nH]c3ccccc23)NC(=O)[C@H](C(C)C)NC(=O)[C@H](Cc2ccccc2)N(C)C(=O)[C@H](C(C)C)NC(=O)[C@H](C)NC(=O)CSC[C@@H](C(N)=O)NC(=O)[C@H](Cc2ccc(O)cc2)N(C)C(=O)[C@H](Cc2ccccc2)NC(=O)[C@H](CCCCNC(=O)CCOCCOCCOCCOC)NC(=O)[C@H](CCCNC(=N)N)NC(=O)[C@H]([C@@H](C)CC)NC1=O` [compound 2], the Kd under setting [2] lay in the range of 1 to 100 nM.

Consider `CC[C@H](C)[C@@H]1NC(=O)[C@H](Cc2ccc(O)cc2)NC(=O)[C@H](Cc2ccc(O)cc2)NC(=O)[C@H](CC(N)=O)NC(=O)[C@H](Cc2c[nH]c3ccc(Cl)cc23)NC(=O)[C@H](C(C)C)NC(=O)[C@H](Cc2ccc(F)cc2)N(C)C(=O)[C@H](C(C)C)NC(=O)[C@H](C)NC(=O)CSC[C@@H](C(N)=O)NC(=O)[C@H](Cc2ccc(O)cc2)N(C)C(=O)[C@H](Cc2ccccc2)NC(=O)[C@H](CCCCNC(=O)CCOCCOCCOCCOC)NC(=O)[C@H](CCCNC(=N)N)N(C)C(=O)[C@H]([C@@H](C)CC)NC1=O` [compound 3], for which the Kd under setting [2] fell in the range of 1 to 100 nM.

Take `CC[C@H](C)[C@@H]1NC(=O)[C@H](Cc2ccc(OC)cc2)NC(=O)[C@H](Cc2ccc(O)cc2)NC(=O)[C@H](CC(N)=O)NC(=O)[C@H](Cc2c[nH]c3ccc(Cl)cc23)NC(=O)[C@H](C(C)C)NC(=O)[C@H](Cc2ccc(F)cc2)N(C)C(=O)[C@H](C(C)C)NC(=O)[C@H](C)NC(=O)CSC[C@@H](C(N)=O)NC(=O)[C@H](Cc2ccc(O)cc2)N(C)C(=O)[C@H](Cc2ccccc2)NC(=O)[C@H](CCCCNC(=O)CCOCCOCCOCCOC)NC(=O)[C@H](CCCNC(=N)N)N(C)C(=O)[C@H]([C@@H](C)CC)NC1=O` [compound 4]: the Kd under setting [2] fell in the range of 1 to 100 nM.

Turning to `CC[C@H](C)[C@@H]1NC(=O)[C@H](Cc2ccc(O)cc2)NC(=O)[C@H](Cc2ccc(O)cc2)NC(=O)[C@H](CC(N)=O)NC(=O)[C@H](Cc2c[nH]c3ccccc23)N(C)C(=O)[C@H](C(C)C)NC(=O)[C@H](Cc2ccc(F)cc2)N(C)C(=O)[C@H](C(C)C)NC(=O)[C@H](C)NC(=O)CSC[C@@H](C(N)=O)NC(=O)[C@H](Cc2ccc(O)cc2)N(C)C(=O)[C@H](Cc2ccccc2)NC(=O)[C@@H](CCCNC(=N)N)NC(=O)[C@H](CCCCNC(=O)CCOCCOCCOCCOC)NC(=O)[C@H]([C@@H](C)CC)NC1=O` [compound 5], the Kd under setting [2] fell in the range of 1 to 100 nM.

As for `CC[C@H](C)[C@@H]1NC(=O)[C@H](Cc2ccc(OC)cc2)NC(=O)[C@H](Cc2ccc(O)cc2)NC(=O)[C@H](CC(N)=O)NC(=O)[C@H](Cc2c[nH]c3ccccc23)N(C)C(=O)[C@H](C(C)C)NC(=O)[C@H](Cc2ccc(F)cc2)N(C)C(=O)[C@H](C(C)C)NC(=O)[C@H](C)NC(=O)CSC[C@@H](C(N)=O)NC(=O)[C@H](Cc2ccc(O)cc2)N(C)C(=O)[C@H](Cc2ccccc2)NC(=O)[C@@H](CCCNC(=N)N)NC(=O)[C@H](CCCCNC(=O)CCOCCOCCOCCOC)NC(=O)[C@H]([C@@H](C)CC)NC1=O` [compound 6], the Kd under setting [2] lay in the range of 1 to 100 nM.

Turning to `CC[C@H](C)[C@@H]1NC(=O)[C@H](Cc2ccc(O)cc2)NC(=O)[C@H](Cc2ccc(O)cc2)NC(=O)[C@H](CC(N)=O)NC(=O)[C@H](Cc2c[nH]c3ccccc23)N(C)C(=O)[C@H](C(C)C)NC(=O)[C@H](Cc2ccc(F)cc2)N(C)C(=O)[C@H](C(C)C)NC(=O)[C@H](C)NC(=O)CSC[C@@H](C(N)=O)NC(=O)[C@H](Cc2ccc(O)cc2)N(C)C(=O)[C@H](Cc2ccccc2)NC(=O)[C@H](CCCCNC(=O)CCOCCOCCOCCOC)NC(=O)[C@H](CCCNC(=N)N)N(C)C(=O)[C@H]([C@@H](C)CC)NC1=O` [compound 7], the Kd under setting [2] lay in the range of 1 to 100 nM.
